Laboratory results taken from ChEMBL document CHEMBL3886773, “Immune system modulators” (2016).

Target: T1, Toll-like receptor 9 (Homo sapiens, UniProt Q9NR96)
T1 sequence (Q9NR96 whole entry): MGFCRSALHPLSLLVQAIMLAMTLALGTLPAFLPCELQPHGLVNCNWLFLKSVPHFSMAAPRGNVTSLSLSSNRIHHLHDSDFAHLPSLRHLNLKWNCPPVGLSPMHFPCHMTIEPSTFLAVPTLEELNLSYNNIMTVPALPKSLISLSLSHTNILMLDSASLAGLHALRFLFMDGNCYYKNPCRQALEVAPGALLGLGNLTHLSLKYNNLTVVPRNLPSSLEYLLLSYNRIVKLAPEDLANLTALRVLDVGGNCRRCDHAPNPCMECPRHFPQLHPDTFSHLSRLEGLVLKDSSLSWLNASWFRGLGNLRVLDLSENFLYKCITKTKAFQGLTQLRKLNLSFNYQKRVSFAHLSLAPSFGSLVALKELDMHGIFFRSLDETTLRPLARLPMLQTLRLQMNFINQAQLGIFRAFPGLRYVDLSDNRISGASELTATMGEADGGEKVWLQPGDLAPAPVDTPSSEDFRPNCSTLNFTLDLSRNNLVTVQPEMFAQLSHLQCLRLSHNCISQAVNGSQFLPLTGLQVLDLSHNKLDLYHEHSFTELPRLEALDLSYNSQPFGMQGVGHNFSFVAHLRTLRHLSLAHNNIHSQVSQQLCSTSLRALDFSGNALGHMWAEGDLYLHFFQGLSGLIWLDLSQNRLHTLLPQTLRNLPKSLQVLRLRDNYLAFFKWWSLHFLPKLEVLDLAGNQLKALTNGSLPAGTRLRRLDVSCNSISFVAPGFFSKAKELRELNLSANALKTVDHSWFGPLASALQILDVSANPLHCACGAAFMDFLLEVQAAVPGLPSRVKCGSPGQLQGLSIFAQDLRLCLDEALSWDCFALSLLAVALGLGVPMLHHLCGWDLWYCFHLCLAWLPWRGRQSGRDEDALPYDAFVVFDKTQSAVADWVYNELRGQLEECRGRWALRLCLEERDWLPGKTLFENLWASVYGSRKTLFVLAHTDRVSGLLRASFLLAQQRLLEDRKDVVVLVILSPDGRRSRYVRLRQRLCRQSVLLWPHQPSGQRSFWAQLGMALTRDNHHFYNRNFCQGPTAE
Test: Antagonism Assay: Day 1: A cell suspension of HEK-Blue™-hTLR9 cells at ~450,000 cells per ml in test medium which contained 5% (v/v) heat inactivated FBS was prepared. 180 μl of cell suspension (Ë¿80,000 cells) was added per well of a flat-bottom 96-well plate and place in an incubator at 37° C. for overnight. Day 2: Test compounds were serially diluted in test medium, generally starting at 10 μM, and diluting by 3 fold in a 96 well master plate. 20 μl of diluted test compound was transferred using a 12 channel multi-channel pipet to the cell plate and incubated at 37° C. for 1 hour. Then 20 μl of an hTLR9 agonist (such as ODN 2006, 1 μM) was added to each well and the plate incubated at 37° C. overnight. Day 3: Invivogen's QUANTI-Blue™ was prepared following the manufacturer's instructions. […] of resuspended QUANTI-Blue™ was added per well of a flat bottom 96-well plate. 20 μl per well of induced HEK-Blue™-hTLR9 cells supernatant was then added to the plate and the plate was incubated at 37° C. for 1-3 h. SEAP levels were determined using a spectrophotometer at 620 nm.

SMILES | IC50
CN1CCN(c2cnc3c(NCCSC(=N)N)nc(-c4ccccc4)nc3n2)CC1 | > 10000 nM
N#Cc1ccc(-c2nc3c(NCCN4CCOCC4)nc(-c4ccccc4)nc3n(CCN3CCOCC3)c2=O)cc1 | 487 nM
CN1CCN(c2nc3nc(-c4ccc(C(C)(C)C)cc4)nc(NCCN4CCOCC4)c3nc2NCCN2CCOCC2)CC1 | 273 nM
Cc1nc2c(NCCN3CCOCC3)nc(-c3ccccc3)nc2n(CCN2CCOCC2)c1=O | 2480 nM
O=c1c(C(F)(F)F)nc2c(NCCN3CCOCC3)nc(-c3ccccc3)nc2n1CCN1CCOCC1 | 3820 nM
CN1CCN(c2nc3nc(-c4ccccc4)nc(NCCN4CCOCC4)c3nc2NCCN2CCOCC2)CC1 | 317 nM
CN1CCN(c2cnc3c(NCCc4ccccn4)nc(-c4ccccc4)nc3n2)CC1 | 2180 nM
Cc1cnc(CNc2nc(-c3ccccc3)nc3nc(N4CCN(C)CC4)cnc23)cn1 | 2490 nM
CN1CCN(c2cnc3c(NCCCn4cncn4)nc(-c4ccccc4)nc3n2)CC1 | 2950 nM
O=c1c(-c2cc(F)cc(F)c2)nc2c(NCCN3CCOCC3)nc(-c3ccccc3)nc2n1CCN1CCOCC1 | 901 nM
CN1CCN(c2nc3nc(-c4ccccc4)nc(NCCN4CCOCC4)c3nc2Cl)CC1 | 62 nM
O=c1c(-c2ccccc2)nc2c(NCCN3CCOCC3)nc(-c3ccccc3)nc2n1CCN1CCOCC1 | 137 nM
CN1CCN(c2ccc(-c3nc(NCCN4CCOCC4)c4nccnc4n3)cc2)CC1 | 285 nM
CN(C)CCN(C)c1nc(-c2ccccc2)nc2nc(N3CCN(C)CC3)cnc12 | 112 nM
CN1CCN(CCNc2nc(-c3ccccc3)nc3nc(N4CCN(C)CC4)cnc23)CC1 | 113 nM
CN1CCN(c2cnc3c(NCCCNc4nc(N)nc(N)n4)nc(-c4ccccc4)nc3n2)CC1 | 198 nM
CN1CCN(CCNc2nc(-c3ccccc3)nc3c2nc(-c2ccccc2)c(=O)n3CCN2CCN(C)CC2)CC1 | 124 nM
CN1CCN(c2cnc3c(NCCc4ccncc4)nc(-c4ccccc4)nc3n2)CC1 | 991 nM
